Measurements taken from PubChem BioAssay AID248 (DTP/NCI, 2004).
“And” between values parts separate entries of the source, which are not always exact repeats. Equal entries are not always repeated. Toxic doses and inconclusive results are not listed. No stated cut-off is given here; in the data, active means T/C of 150% or more; inactive means T/C below 125%.

System: L1210 leukemia ip in BDF1 mice, survival T/C
Test: NCI In Vivo Anticancer Drug Screen. Data for tumor model L1210 Leukemia (intraperitoneal) in B6D2F1 (BDF1) mice
Settings: endpoint: mean survival time, higher = longer survival
Method in brief: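 In this screen, tumor-bearing mice given compound are compared to those given vehicle, and their survival values are reported as a treated-to-control quotient.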

[1] = dose: 100.0 mg/kg/injection, schedule: Q04DX002 (ip), vehicle: saline with Tween-80
[2] = dose: 200.0 mg/kg/injection, schedule: Q04DX002 (ip), vehicle: saline with Tween-80
[3] = dose: 400.0 mg/kg/injection, schedule: Q04DX002 (ip), vehicle: saline with Tween-80
[4] = dose: 100.0 mg/kg/injection, schedule: Q01DX001 (ip), vehicle: saline
[5] = dose: 200.0 mg/kg/injection, schedule: Q01DX001 (ip), vehicle: saline
[6] = dose: 25.0 mg/kg/injection, schedule: Q04DX002 (ip), vehicle: Klucel (hydroxypropylcellulose) (HPC)
[7] = dose: 50.0 mg/kg/injection, schedule: Q04DX002 (ip), vehicle: Klucel (hydroxypropylcellulose) (HPC)
[8] = dose: 100.0 mg/kg/injection, schedule: Q04DX002 (ip), vehicle: Klucel (hydroxypropylcellulose) (HPC)
[9] = dose: 100.0 mg/kg/injection, schedule: Q04DX003 (ip), vehicle: Klucel (hydroxypropylcellulose) (HPC)
[10] = dose: 200.0 mg/kg/injection, schedule: Q04DX003 (ip), vehicle: Klucel (hydroxypropylcellulose) (HPC)
[11] = dose: 400.0 mg/kg/injection, schedule: Q04DX003 (ip), vehicle: Klucel (hydroxypropylcellulose) (HPC)

Measured: T/C

CC1Oc2ccccc2NC1=O (configuration not stated)
inactive: [1] 102 % of control | [2] 106 % of control | [3] 98 % of control

CC1(C)CN1C1=C(Cl)C(=O)C(N2CC2(C)C)=C(Cl)C1=O
inactive: dose: 1.56 mg/kg/injection, schedule: Q04DX003 (ip), vehicle: saline 92 % of control | dose: 3.12 mg/kg/injection, schedule: Q04DX003 (ip), vehicle: saline 96 % of control | dose: 6.25 mg/kg/injection, schedule: Q04DX003 (ip), vehicle: saline 113 % of control | dose: 12.5 mg/kg/injection, schedule: Q04DX003 (ip), vehicle: saline 101 % of control | dose: 25.0 mg/kg/injection, schedule: Q04DX003 (ip), vehicle: saline 96 % of control | dose: 50.0 mg/kg/injection, schedule: Q04DX003 (ip), vehicle: saline 92 % of control | dose: 75.0 mg/kg/injection, schedule: Q04DX003 (ip), vehicle: saline 104 % of control | dose: 115.0 mg/kg/injection, schedule: Q04DX003 (ip), vehicle: saline 104 % of control | dose: 170.0 mg/kg/injection, schedule: Q04DX003 (ip), vehicle: saline 108 % of control

O=[N+]([O-])c1c(Cl)ccc2c(Cl)ccnc12
inactive: dose: 100.0 mg/kg/injection, schedule: Q04DX003 (ip), vehicle: gum acacia 111 % of control | dose: 200.0 mg/kg/injection, schedule: Q04DX003 (ip), vehicle: gum acacia 91 % of control

CCCCC(=O)N(CCCC)CCCC
inactive: dose: 100.0 mg/kg/injection, schedule: Q04DX002 (ip), vehicle: saline 107 % of control | dose: 200.0 mg/kg/injection, schedule: Q04DX002 (ip), vehicle: saline 114 % of control | dose: 400.0 mg/kg/injection, schedule: Q04DX002 (ip), vehicle: saline 93 % of control

CCCOc1ccc(C)cc1
inactive: [4] 93 % of control | [5] 108 % of control

Cc1c(C=NCCNCCN=Cc2[nH]c(=S)[nH]c(=O)c2C)[nH]c(=S)[nH]c1=O
inactive: dose: 44.0 mg/kg/injection, schedule: Q04DX003 (ip), vehicle: saline with Tween-80 97 % of control and 98 % of control | dose: 66.0 mg/kg/injection, schedule: Q04DX003 (ip), vehicle: saline with Tween-80 106 % of control and 108 % of control | dose: 100.0 mg/kg/injection, schedule: Q04DX003 (ip), vehicle: saline with Tween-80 103 % of control and 110 % of control | dose: 150.0 mg/kg/injection, schedule: Q04DX003 (ip), vehicle: saline with Tween-80 98 % of control and 104 % of control | dose: 200.0 mg/kg/injection, schedule: Q04DX003 (ip), vehicle: saline with Tween-80 110 % of control | dose: 400.0 mg/kg/injection, schedule: Q04DX003 (ip), vehicle: saline with Tween-80 104 % of control

CCCCCCCNC(CC(C)C)C(=O)OCC (configuration not stated)
inactive: [6] 91 % of control | [7] 97 % of control | [8] 94 % of control

CC/C(C)=N/C(=O)NN
inactive: dose: 100.0 mg/kg/injection, schedule: Q01DX001 (ip), vehicle: saline with Tween-80 103 % of control

CC12CCCCC1CC(=O)CC2 (configuration not stated)
inactive: [1] 99 % of control | [2] 86 % of control | [3] 96 % of control

C1COC(N2CC3CCC(CC3)C2)=N1
inactive: dose: 75.0 mg/kg/injection, schedule: Q01DX001 (ip), vehicle: saline 96 % of control | dose: 150.0 mg/kg/injection, schedule: Q01DX001 (ip), vehicle: saline 105 % of control

COc1cc2c(cc1OC)C(=O)CC2
inactive: dose: 50.0 mg/kg/injection, schedule: Q01DX001 (ip), vehicle: other 91 % of control | dose: 100.0 mg/kg/injection, schedule: Q01DX001 (ip), vehicle: other 98 % of control | dose: 200.0 mg/kg/injection, schedule: Q01DX001 (ip), vehicle: other 98 % of control | dose: 400.0 mg/kg/injection, schedule: Q01DX001 (ip), vehicle: other 96 % of control

CC(CC(=O)c1ccc(F)cc1)N1CCOCC1 (configuration not stated)
inactive: [4] 92 % of control | [5] 90 % of control

Nc1ccccc1/C=C(\C(=O)O)c1cccc(Cl)c1
inactive: [9] 99 % of control | [10] 101 % of control | [11] 108 % of control

O=C(CNC(=O)C(CSCc1ccccc1)NC(=O)OCc1ccccc1)OCc1ccccc1 (configuration not stated)
inactive: dose: 25.0 mg/kg/injection, schedule: Q01DX009 (ip), vehicle: gum acacia 92 % of control | dose: 50.0 mg/kg/injection, schedule: Q01DX009 (ip), vehicle: gum acacia 87 % of control | dose: 100.0 mg/kg/injection, schedule: Q01DX009 (ip), vehicle: gum acacia 94 % of control | [9] 89 % of control | [11] 99 % of control

CCCCCCC(N)C(=O)O (configuration not stated)
inactive: [6] 95 % of control | [7] 104 % of control | [8] 100 % of control | [9] 96 % of control | [10] 100 % of control | [11] 103 % of control

CN(CCC#N)c1ccc(/C=C(\C#N)c2ccc(Br)cc2)cc1
inactive: dose: 100.0 mg/kg/injection, schedule: Q01DX009 (ip), vehicle: Klucel (hydroxypropylcellulose) (HPC) 94 % of control | dose: 200.0 mg/kg/injection, schedule: Q01DX009 (ip), vehicle: Klucel (hydroxypropylcellulose) (HPC) 94 % of control | dose: 400.0 mg/kg/injection, schedule: Q01DX009 (ip), vehicle: Klucel (hydroxypropylcellulose) (HPC) 96 % of control
